Measurements as given in patent publication US12691092B2, “Method for reducing cutaneous skin scarring by pre-emptive priming and compounds and compositions for its implementation” (SOS SCIENCE OF SKIN LTD, priority 2020, dated 2026).

Experiments:
mast cells (MC) = assay: Mast cell identification by MCT, MCC and CKit immunohistochemical markers in scar biopsies (double-blind placebo-controlled punch-biopsy trial); assay type: in vivo, human
Protocol: A double-blind randomized placebo-controlled trial was conducted using a temporal punch-biopsy model. The punch biopsy and topical application methodology used in the study is illustrated in FIG. 1, namely showing pre-injury pre-emptive priming (7-days), pre-injury pre-emptive priming (3-days), day of injury (immediate application on day 0), post-injury (delayed 2 weeks post injury) including biopsy time points and time of topical applications. Each group applied both placebo and topical formulations twice daily for the duration of the study until week 8, with only the starting time point differing between groups Participants were split into 4 groups (n=10 in each group) in order to compare different modes (timings) of commencement of the topical application: • Group-1: Pre-emptive Priming (7-days): pre-injury • Group-2: Pre-emptive Priming (3-days): pre-injury • Group-3: Immediate (0-day): day-of-injury • Group-4: Delayed (14-days): post-injury Clinical quantitative devices were used to objectively monitor cutaneous healing at weekly intervals and punch biopsies were performed on day 0 (uninjured skin) and at weeks 4 and 8 for protein and gene expression analyses. In the trial, topical EGCG and a placebo topical were applied twice daily for the duration of the trial until week 8 with only the starting time points differing between groups. Clinical and experimental analysis involved use of non-invasive devices as well as protein and gene studies. Excisional skin biopsies in upper arms were evaluated weekly with multiple quantitative devices over an 8-week period. Immunohistochemical analyses, mRNA sequencing and QRT-PCR were performed on tissue biopsies. MC identification was performed using mast cell tryptase (MCT), mast cell chymase (MCC) and CKit markers. […] The percentage differences between the change in placebo and EGCG for group-1 compared to group-2 was 58% (p=0.002), group-3 was 53% (p=0.003) and group-4 was 52% (p=0.005). […] The greatest difference was in group-1 compared to group-3 by 26% (p=0.02) and group-4 by 27% (p=0.02). Subsequent QRT-PCR analysis further confirmed down-regulation of MCT and MCC (p<0.05) in EGCG-treated samples at week-4 in all groups. MCT, MCC and CKit quantitative measurements are expressed in mm^2.

VEGF-A = assay: Gene expression analysis of VEGF-A; assay type: in vivo, human; conditions: week 4, groups 1-2 and 4, p<0.05
Protocol: (§1) A double-blind randomized placebo-controlled trial was conducted using a temporal punch-biopsy model. The punch biopsy and topical application methodology used in the study is illustrated in FIG. 1, namely showing pre-injury pre-emptive priming (7-days), pre-injury pre-emptive priming (3-days), day of injury (immediate application on day 0), post-injury (delayed 2 weeks post injury) including biopsy time points and time of topical applications. Each group applied both placebo and topical formulations twice daily for the duration of the study until week 8, with only the starting time point differing between groups Participants were split into 4 groups (n=10 in each group) in order to compare different modes (timings) of commencement of the topical application: • Group-1: Pre-emptive Priming (7-days): pre-injury • Group-2: Pre-emptive Priming (3-days): pre-injury • Group-3: Immediate (0-day): day-of-injury • Group-4: Delayed (14-days): post-injury Clinical quantitative devices were used to objectively monitor cutaneous healing at weekly intervals and punch biopsies were performed on day 0 (uninjured skin) and at weeks 4 and 8 for protein and gene expression analyses. […] Excisional skin biopsies in upper arms were evaluated weekly with multiple quantitative devices over an 8-week period. […]

[1] = tested on: human skin scarring model; assay: Skin thickness by high frequency ultrasound (HFUS); assay type: in vivo; conditions: significant in group-1 week 8 (p=0.002); group-2 weeks 6, 8; group-3 weeks 5-8; group-4 weeks 3, 5-8 (p<0.01)
Protocol: as §1, with “Structural changes” for “Excisional skin biopsies”, “the scars” for “upper arms”, “assessed clinically by high frequency ultrasound (HFUS) and elasticity probe, and elastin and collagen markers.” for “evaluated weekly with multiple quantitative devices over an 8-week period.”

[2] = weeks 4 and 8, all groups, p<0.01, topical twice daily

O=C(OC1Cc2c(O)cc(O)cc2OC1c1cc(O)c(O)c(O)c1)c1cc(O)c(O)c(O)c1 (single isomer, unassigned; (-)) [EGCG, (-)-epigallocatechin-3-gallate]
Resident mast cell population in primed uninjured skin (mast cells (MC); primed uninjured skin prior to injury): reduces the resident mast cell population | MCC: larger difference of group-2 than group-4 (mast cells (MC); week 4, 3-day priming vs delayed, p=0.009): 29% | MCT: percentage difference between the change in placebo and EGCG, group-1 compared to group-2 (mast cells (MC); week 4, 7-day pre-injury priming vs 3-day priming, p=0.002): 58% | MCT: percentage difference between the change in placebo and EGCG, group-1 compared to group-4 (mast cells (MC); week 4, 7-day pre-injury priming vs delayed (14 days), p=0.005): 52% | MCT: percentage difference between the change in placebo and EGCG, group-1 compared to group-3 (mast cells (MC); week 4, 7-day pre-injury priming vs immediate (day 0), p=0.003): 53% | MCC: greater difference of group-1 than group-4 (mast cells (MC); week 4, 7-day priming vs delayed, p=0.001): 41% | CKit: difference of group-1 compared to group-4 (mast cells (MC); week 4, 7-day priming vs delayed, p=0.02): 27% | MCC: greater difference of group-1 than group-3 (mast cells (MC); week 4, 7-day priming vs immediate, p=0.01): 29% | CKit: difference of group-1 compared to group-3 (mast cells (MC); week 4, 7-day priming vs immediate, p=0.02): 26% | CKit positive cells, EGCG-treated scars compared to placebo-treated scars (mast cells (MC); [2]): significantly fewer positive cells | MCC positive cells, EGCG-treated scars compared to placebo-treated scars (mast cells (MC); [2]): significantly fewer positive cells | MCT positive cells, EGCG-treated scars compared to placebo-treated scars (mast cells (MC); [2]): significantly fewer positive cells | VEGF-A gene expression, EGCG-treated samples compared to placebo (VEGF-A): significant reductions | HFUS skin thickness, EGCG scars compared to placebo scars [1]: lower
